Assay results from the NIST ThermoML archive (doi:10.1021/je800110r).
± gives the expanded uncertainty stated by the source.

Conditions: 283.15 K, Liquid, Vibrating tube method

CCCCCCCCCC [decane]
Conditions | mass density [kg/m3]
9564 kPa | 744.3 ± 2
9577 kPa | 744.1 ± 2
9588 kPa | 744.2 ± 2
9597 kPa | 744.3 ± 2
9605 kPa | 744.2 ± 2
9614 kPa | 744.3 ± 2
9623 kPa | 744.3 ± 2
9633 kPa | 744.3 ± 2
9642 kPa | 744.3 ± 2
9651 kPa | 744.3 ± 2
9663 kPa | 744.4 ± 2
9675 kPa | 744.4 ± 2
9685 kPa | 744.4 ± 2
9695 kPa | 744.3 ± 2
9704 kPa | 744.3 ± 2
9726 kPa | 744.3 ± 2
9736 kPa | 744.5 ± 2
9746 kPa | 744.3 ± 2
9758 kPa | 744.3 ± 2
9766 kPa | 744.3 ± 2
9777 kPa | 744.4 ± 2
9784 kPa | 744.2 ± 2
9795 kPa | 744.3 ± 2
9803 kPa | 744.3 ± 2
9814 kPa | 744.5 ± 2
9822 kPa | 744.5 ± 2
9835 kPa | 744.4 ± 2
9845 kPa | 744.4 ± 2
9855 kPa | 744.5 ± 2
9870 kPa | 744.4 ± 2
9880 kPa | 744.4 ± 2
9892 kPa | 744.5 ± 2
9905 kPa | 744.5 ± 2
9914 kPa | 744.5 ± 2
9923 kPa | 744.5 ± 2
9931 kPa | 744.5 ± 2
9940 kPa | 744.5 ± 2
9949 kPa | 744.5 ± 2
9961 kPa | 744.5 ± 2
9973 kPa | 744.5 ± 2
9982 kPa | 744.6 ± 2
9992 kPa | 744.5 ± 2
10001 kPa | 744.6 ± 2
10013 kPa | 744.5 ± 2
10022 kPa | 744.5 ± 2
10032 kPa | 744.6 ± 2
10042 kPa | 744.5 ± 2
10056 kPa | 744.6 ± 2
10066 kPa | 744.7 ± 2
10076 kPa | 744.6 ± 2
10086 kPa | 744.5 ± 2
10097 kPa | 744.5 ± 2
10108 kPa | 744.5 ± 2
10119 kPa | 744.6 ± 2
10131 kPa | 744.6 ± 2
10144 kPa | 744.6 ± 2
10160 kPa | 744.6 ± 2
10170 kPa | 744.6 ± 2
10185 kPa | 744.6 ± 2
10195 kPa | 744.6 ± 2
10205 kPa | 744.6 ± 2
10215 kPa | 744.7 ± 2
10224 kPa | 744.7 ± 2
10234 kPa | 744.6 ± 2
10242 kPa | 744.7 ± 2
10252 kPa | 744.7 ± 2
10263 kPa | 744.8 ± 2
10274 kPa | 744.8 ± 2
10285 kPa | 744.6 ± 2
10295 kPa | 744.7 ± 2
10305 kPa | 744.7 ± 2
10317 kPa | 744.7 ± 2
10331 kPa | 744.7 ± 2
10342 kPa | 744.8 ± 2
10353 kPa | 744.7 ± 2
10374 kPa | 744.8 ± 2
10384 kPa | 744.8 ± 2
10397 kPa | 744.8 ± 2
10407 kPa | 744.8 ± 2
10445 kPa | 744.8 ± 2
10457 kPa | 745 ± 2
10500 kPa | 744.9 ± 2
10514 kPa | 744.9 ± 2
10540 kPa | 744.9 ± 2
10683 kPa | 745 ± 2
10698 kPa | 745.1 ± 2
10709 kPa | 745 ± 2
10720 kPa | 745.1 ± 2
10735 kPa | 745.1 ± 2
10744 kPa | 745 ± 2
10761 kPa | 745 ± 2
10780 kPa | 745 ± 2
10791 kPa | 745.2 ± 2
10802 kPa | 745.1 ± 2
10816 kPa | 745.1 ± 2
10830 kPa | 745 ± 2
10841 kPa | 745.1 ± 2
10852 kPa | 745.2 ± 2
10867 kPa | 745.1 ± 2
10880 kPa | 745.2 ± 2
10894 kPa | 745.2 ± 2
10907 kPa | 745.1 ± 2
10924 kPa | 745.1 ± 2
10938 kPa | 745.2 ± 2
10953 kPa | 745.3 ± 2
10965 kPa | 745.2 ± 2
10983 kPa | 745.2 ± 2
11010 kPa | 745.1 ± 2
11026 kPa | 745.2 ± 2
11036 kPa | 745.2 ± 2
11049 kPa | 745.3 ± 2
11068 kPa | 745.2 ± 2
11079 kPa | 745.3 ± 2
11097 kPa | 745.2 ± 2
11109 kPa | 745.3 ± 2
11124 kPa | 745.3 ± 2
11134 kPa | 745.3 ± 2
11149 kPa | 745.3 ± 2
11159 kPa | 745.2 ± 2
11173 kPa | 745.3 ± 2
11183 kPa | 745.5 ± 2
11197 kPa | 745.3 ± 2
11207 kPa | 745.3 ± 2
11227 kPa | 745.3 ± 2
11242 kPa | 745.4 ± 2
11258 kPa | 745.5 ± 2
11268 kPa | 745.4 ± 2
11284 kPa | 745.4 ± 2
11299 kPa | 745.5 ± 2
11309 kPa | 745.4 ± 2
11322 kPa | 745.4 ± 2
11339 kPa | 745.5 ± 2
11351 kPa | 745.5 ± 2
11366 kPa | 745.5 ± 2
11378 kPa | 745.4 ± 2
11399 kPa | 745.5 ± 2
11416 kPa | 745.6 ± 2
